Experimental data as given in publication PMC10108821, “Three tyrosine kinase inhibitors cause cardiotoxicity by inducing endoplasmic reticulum stress and inflammation in cardiomyocytes” (BMC Medicine, 2023).

What was measured:
[1] = tested on: Cor.4U hiPSC-CMs; experiment: 3'DGE-UMI RNAseq transcriptome of hiPSC-CMs
[2] = tested on: Sprague-Dawley rats; experiment: Rat gavage cardiotoxicity model: survival, heart and body weight; settings: day 7; ponatinib 15 mg/kg, sorafenib 50 mg/kg gavage once daily
Description: (§1) All experiments were performed in accordance with relevant guidelines and regulations approved by the Institutional Animal Care and Use Committee (IACUC) at Peking University Health Science Center. Sprague-Dawley rats (170-200g) were purchased from Beijing Vital River Laboratory Animal Technology. Forty-eight male rats were randomly divided into six groups, with 8 animals per group. […] The gavage was done daily starting at 10am. At the end of the experiments, rats were euthanized by CO2 about 5~6 hours after the last gavage, and then hearts were harvested for further study. Left ventricular muscle was dissected and divided into 3 parts with similar size, one of which was used for RNA extraction and qRT-PCR.

[3] = tested on: HELP hiPSC-CMs; experiment: CardioExcyte 96 microelectrode array: base impedance and extracellular field potential; assay type: cell-based, human; settings: fixed doses: 10 µM, crizotinib and ponatinib 3.16 µM; up to 24 h
Summary of the method: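 HELP hiPSC-CMs plated at 50,000 cells/well on 96-well microelectrode arrays, cultured 3-5 days until impedance and field potential stabilized. Recordings before and every 30~60 min after drug addition (added at 2x); beat rate, impedance amplitude, base impedance and FPDc averaged over 3 wells.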

[4] = tested on: Cor.4U hiPSC-CMs; experiment: ATP level (CellTiter-Glo) in hiPSC-CMs; assay type: cell-based, human
[5] = tested on: NRCMs; experiment: ROS by H2DCFDA staining and flow cytometry; settings: 3 h; 10 µM afatinib, 10 µM sorafenib, 5.62 µM ponatinib
Description: For ROS assessment, cells were washed with PBS once and stained with 10μM H2DCFHDA (MCE) in phenol red-free DMEM (Procell) in a humid incubator with 5% CO2 at 37°C for 30 minutes. Cells were washed with PBS twice and dissociated to single cells before flow cytometry analysis at the FITC channel. For lipid peroxidation measurement, cells were washed with PBS once and stained with 2μM C11-bodipy^581/591 (Cayman) in phenol red-free DMEM (Procell) in a humid incubator with 5% CO2 at 37°C for 30 minutes. Cells were washed with PBS twice and dissociated to single cells before flow cytometry analysis at both the FITC and the PE channels. Fluorescence of the oxidized C11-bodipy were acquired through the FITC channel (Ex/Em=488/520nm) and that of the non-oxidized C11-bodipy through the PE channel (Ex/Em=555/624nm).

[6] = tested on: patients; settings: cited from earlier work
[7] = tested on: NRCMs; experiment: Calcium staining with Calbryte 520 AM; assay type: cell-based, rat; settings: 0.5 and 1 h; 10 µM afatinib, 10 µM sorafenib, 5.62 µM ponatinib
[8] = tested on: Phospho-eIF2α, XBP1s, ATF6 (cleaved); experiment: Western blot of ER stress effectors in NRCMs; assay type: cell-based, rat
Description: Cells were homogenized in the RIPA lysis buffer (Applygen) containing protease and phosphatase inhibitor cocktails (Bimake). The extract was spun at 12,000xg for 20min at 4°C. Total protein was measured by BCA (Thermofisher) and resolved by sodium dodecyl sulfate–polyacrylamide gel electrophoresis (SDS-PAGE). Proteins were blotted to polyvinylidene difluoride membranes (Amersham). Blots were blocked with non-fat milk (BBI Life Sciences) and incubated with antibodies against ATF6 (proteintech), phospho-eIF2α (ABclonol), XBP1 (ABclonol) and GAPDH (proteintech). Goat anti-rabbit IgG, goat anti-mouse IgG were incubated with the blots for 1 hour at room temperature. After 3 washes with 1xTBST (50 mM Tris-Cl, 150 mM NaCl, 0.1% Tween 20, pH 7.5), the blots were developed with the ECL Plus Kit (Absin). Relative protein expression was quantified by optical density and normalized to GAPDH.

[9] = tested on: ER stress genes in NRCMs; experiment: qRT-PCR of ER stress genes in NRCMs; assay type: cell-based, rat; settings: afatinib 5.62 µM, sorafenib 3.16 μM, ponatinib 1.78 μM
[10] = tested on: rat left ventricles; experiment: Rat gavage cardiotoxicity model: qRT-PCR in left ventricles; assay type: in vivo; settings: ponatinib 15 mg/kg, sorafenib 50 mg/kg gavage, 3 or 7 days
Description: as §1
RNA was isolated based on a standard protocol using TRIzol reagent (Vazyme). TRIzol (1ml per 1 well of a 6-well plate) was used to lyse cells and chloroform was added for RNA separation. Samples were shaked vigorously by hand for 15 seconds and incubated at room temperature for 2-3 minutes. RNA was present in the aqueous phase after centrifuge at 12000 x g for 15 minutes. Isopropyl alcohol was mixed to precipitate RNA from the aqueous phase. […] 1 μg total RNA was used for cDNA synthesis using a reverse transcription kit (Bioman). We then measured expression of genes of interest with SYBRR Green qPCR Mix (Bioman) using Applied Biosystems 7500 Quantitative PCR Instrument. […]

[11] = tested on: TNNT2 protein in NRCMs; experiment: TNNT2 immunofluorescence; assay type: cell-based, rat; settings: 24 h; 10 µM afatinib, 10 µM sorafenib, 5.62 µM ponatinib
Description: Cells cultured in multi-well plates were fixed with 4% paraformaldehyde (Sigma) for 30 minutes at room temperature, washed 3 times with PBS, and permeabilized with 0.2% Tritonx100 (Applygen) for 15 minutes. Then, cells were blocked with 5% normal goat serum (Bioss) for 1-hr at room temperature and probed with primary antibodies against TNNT2 (proteintech) or NF-κB (CST) overnight at 4°C. Secondary antibodies (Jackson Immuno Research Laboratories, Inc.) and 0.4ug/mL DAPI (Coolaber) were applied at room temperature for 1 hour. Immunofluorescence pictures were taken by ImageXpress Micro Confocal-AWES (Molecular Devices).

[12] = tested on: NRCMs; experiment: Mitochondrial membrane potential by TMRE staining; assay type: cell-based, rat; settings: 24 h of treatment
Description: Fig S3 Mitochondrial membrane potential changes in response to TKIs. (A) Raw images of TMRE staining in NRCMs treated with different drugs. (B) Fold changes in mitochondrial membrane potential at different treatments.

CNC(=O)c1cc(Oc2ccc(NC(=O)Nc3ccc(Cl)c(C(F)(F)F)c3)cc2)ccn1 [sorafenib]
expression of tRNA aminoacylation gene markers (SARS, GARS) ([1]; Cluster 3): increased
expression of genes associated with ER stress (ATF4, NUPR1, DDIT3, TRIB3, CHAC1, SESN2, HERPUD1) ([1]; high PC1 loadings, ponatinib at high dose): upregulated
heart or body weight [2]: not changed
effect on beat rate, contraction, base impedance and corrected field potential duration [3]: stopped beating and contraction of hiPSC-CMs after 0.5 h of treatment
effect on ATP levels ([4]; 0.32 to 10 µM, day 1 to day 5): slight increase in the ATP level at day 1, but decrease at day 5
EC50 (ATP) compared with maximal plasma concentration (Cmax) ([4]; day 5): lower than or similar to their maximal plasma concentrations (Cmax)
increase in percent of ROS-high cells [5]: 16.2%
myocardial ischemia ([6]; clinical trials): 2.7–3%
level of cardiotoxicity based on literature reports ([6]; ref Table S1, 2, 4, 26–36): high-levels of cardiotoxicity
cytosolic calcium concentration [7]: significant cytosolic overload of Ca^2+
duration of activated eIF2α phosphorylation [8]: 6 h
temporal activation of ER stress genes, 72 versus 24 h [9]: most gene targets of ER stress were downregulated over time
gene expression of Anp [10]: did not induce a significant change
TNNT2 protein (cardiac Troponin T2) [11]: had the most effect
mitochondrial membrane potential [12]: decreased the mitochondrial membrane potential significantly
